Converted amounts (≈) assume the structure as drawn. The source made the active and inactive calls. No cut-off for these calls is given here.
Experiments:
[1] = tested on: P388; test: Cytotoxicity against mouse P388 cells after 24 hrs; assay type: functional, cell-based; conditions: for IC50: P388, 24 h
[2] = tested on: A549; test: Cytotoxicity against human A549 cells after 24 hrs; assay type: functional, cell-based; conditions: for IC50: A549, 24 h

Structure (SMILES)	IC50 [1] [µg/mL]	IC50 [2] [µg/mL]	Activity [1]	Activity [2]
C=C1C(=O)O[C@H]2[C@H]1[C@H](OC(=O)/C(C)=C/CO)CC(=C)[C@@H]1C=C[C@@](C)(O)[C@H]21 [EUPALINILIDE B]	0.21 (≈ 0.583 µM)	0.75 (≈ 2.08 µM)	–	–
C=C1C(=O)O[C@H]2[C@H]1[C@H](OC(=O)/C(C)=C/CO)C[C@](O)(CO)[C@@H]1[C@H](O)[C@H]3O[C@@]3(C)[C@H]21	–	–	inactive	inactive
C=C1C(=O)O[C@@H]2[C@H]3C(C)=C[C@H]4OC[C@@](O)(C[C@@H](OC(=O)/C(C)=C/CO)[C@@H]12)[C@@H]34 [EUPALINILIDE C]	1.2 (≈ 3.19 µM)	11 (≈ 29.2 µM)	–	–
C=C1C(=O)O[C@@H]2[C@H]3C(C)=C[C@@H](O)[C@H]3[C@@](O)(CCl)C[C@@H](OC(=O)/C(C)=C/C)[C@@H]12 [EUPALINILIDE E]	–	0.028 (≈ 0.0706 µM)	inactive	–
COC(=O)C1=CC[C@@]23CC[C@@H]([C@@](C)(/C=C/C=C(\C)C(=O)O)OC2=O)[C@@]3(OC(C)=O)CC1 [PSEUDOLARIC ACID B]	–	0.86 (≈ 1.99 µM)	–	–
C=C1C(=O)O[C@@H]2[C@H]3C(C)=C[C@@H](O)[C@H]3[C@@](O)(CO)C[C@@H](OC(=O)/C(C)=C/CO)[C@@H]12	–	–	inactive	inactive

From ChEMBL document CHEMBL1148219, “Cytotoxic sesquiterpene lactones from Eupatorium lindleyanum” (J Nat Prod, 2004)
